Test results reported in PubChem BioAssay (NCI).
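Values below derive from 48-hour exposures of cells grown in 96-well plates, with endpoints linearly interpolated between the two concentrations bracketing the appropriate inhibition level. At the GI50, growth is halved. TGI: total growth inhibition.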

Key:
Experiment in all cases: growth of human tumour cells (NCI), 48 h
CCRF-CEM leukemia = tested on: CCRF-CEM leukemia
EKVX NSCLC = tested on: EKVX NSCLC
HOP-62 NSCLC = tested on: HOP-62 NSCLC
HT29 colon = tested on: HT29 colon
MALME-3M melanoma = tested on: MALME-3M melanoma
NCI/ADR-RES ovarian = tested on: NCI/ADR-RES ovarian
OVCAR-3 ovarian = tested on: OVCAR-3 ovarian
OVCAR-4 ovarian = tested on: OVCAR-4 ovarian
SF-295 CNS = tested on: SF-295 CNS
SW-620 colon = tested on: SW-620 colon

SMILES | GI50 (CCRF-CEM leukemia) [µM] | TGI (CCRF-CEM leukemia) [µM] | GI50 (EKVX NSCLC) [µM] | TGI (EKVX NSCLC) [µM] | GI50 (HOP-62 NSCLC) [µM] | TGI (HOP-62 NSCLC) [µM] | GI50 (HT29 colon) [µM] | TGI (HT29 colon) [µM] | GI50 (MALME-3M melanoma) [µM] | TGI (MALME-3M melanoma) [µM] | GI50 (NCI/ADR-RES ovarian) [µM] | TGI (NCI/ADR-RES ovarian) [µM] | GI50 (OVCAR-3 ovarian) [µM] | TGI (OVCAR-3 ovarian) [µM] | GI50 (OVCAR-4 ovarian) [µM] | TGI (OVCAR-4 ovarian) [µM] | GI50 (SF-295 CNS) [µM] | TGI (SF-295 CNS) [µM] | GI50 (SW-620 colon) [µM] | TGI (SW-620 colon) [µM]
C=C1SC(=Nc2ccccc2Cl)N(C(=O)c2sc3ccccc3c2Cl)C12CCCCC2 | 5.41 | > 100 | 3.2 | > 100 | 9.08 | > 100 | 6.71 | > 100 | 29.2 | > 100 | 3.51 | > 100 | 6.56 | 93.4 | 7.75 | > 100 | 2.31 | 23 | 5.87 | > 100
C=C1C(=O)O[C@H]2[C@H]1CC/C(Cn1cc(-c3ccc(F)cc3)nn1)=C\CC[C@@]1(C)O[C@@H]21 | 0.247 | 0.75 | 1.49 | 2.97 | 3.04 | 12.1 | 0.695 | 2.15 | 1.4 | 2.97 | 3.05 | 14 | 0.491 | 1.69 | 1.29 | 3.03 | 5.73 | 19.1 | 0.423 | 1.54
O=CN1N=C(c2cccc(Nc3ccnc4cc(Cl)ccc34)c2)CC1c1ccccc1 (stereo not given) | 0.31 | 1.48 | 0.949 | > 100 | 0.495 | 17.3 | 0.327 | 1.15 | 0.373 | > 100 | 0.29 | 1.17 | 0.269 | 0.774 | 0.536 | > 100 | 0.306 | 1.66 | 0.311 | 14.7
CC1(C)OC(=O)C(C#N)=C1C[n+]1ccccc1 |  | > 10 |  | > 10 |  | > 10 |  | > 10 |  | > 10 |  | > 10 |  | > 10 |  | > 10 |  | > 10 |  | > 10
